# Structures can show the parent of a compound that is named as a salt.
# Assays:
# [1] = test system: human hepatic cancer cells (HuH-7); assay: Antiproliferative effect on cancer cells (in vitro), sulforhodamine B method; format: cell-based; settings: 120 h, HuH-7 cells, 5 days incubation with test compound, SRB staining, read-out: IC50 (50% inhibitory concentration), growth inhibition of HuH-7 cells
# Protocol: Antiproliferative Effect on Cancer Cells (In Vitro)
# Growth inhibition of human hepatic cancer cells (HuH-7) was determined by the sulforhodamine B method based on the method of Skehan P. et al. (J Natl Cancer Inst. 1990 Jul. 4; 82(13): 1107-12). In the study, HuH-7 cells were seeded on DMEM medium containing 10% fetal bovine serum in a 96-well microplate. After 24-hour incubation at 37° C. in the presence of 5% carbon dioxide, the test compound was added and the cells were incubated for another 5 days. After incubation, a trichloroacetic acid solution was added to yield the final concentration of 10% and the cells were left to stand at 4° C. for 1 hour to fix. Then, the cells were washed with water to remove the medium and trichloroacetic acid and dried in the air. The dried cells were stored at 4° C. until they were stained with sulforhodamine B. To each well, 1% acetic acid solution containing 0.4% sulforhodamine B was added and left to stand for 20 to 30 minutes at room temperature. After discarding the supernatant, each well was washed with 1% acetic acid solution, and 10 mM Tris(tris-(hydroxymethyl)aminomethane) solution was added while stirring to elute the dye taken into the cells. Then, the optical density was determined at the measurement wavelength of 492 nm and the reference wavelength of 690 nm, and the difference was calculated. The cell growth activity in each well was defined as the value determined by subtracting the OD in the control well not containing cells (the difference in absorbance between 492 nm and 690 nm) from that in the test well.
# The 50% inhibitory concentration (IC50 (nM)) of the test compound was determined by comparing the cell growth activity in the well containing the test compound with that of the control not containing the test compound.
# [2] = Metabolic stability test in hepatic microsome; format: in vitro ADME; settings: liver microsomes, NADH/NADPH, 37° C., 0, 10 and 20 min, read-out: CLint (intrinsic clearance)
# Protocol: Metabolic Stability Test in Hepatic Microsome
# In this study, 222.5 μL of 0.22 mg/mL liver microsome was distributed to each tube, and 2.5 μL of 100 μM test compound was added thereto. Then, 22.5 μL of this mixture was divided to 500 μL of acetonitrile spiked IS as 0 min sample, and the residue was pre-incubated at 37° C. for 5 min. Reaction was started by the addition of 22.5 μL of 10 mM NADH/NADPH, and after 10 and 20 min, 25 μL of the reaction mixture was divided to 500 μL of acetonitrile spiked IS. The samples were centrifuged (5700 rpm, 4° C., 10 min), and the supernatants were analyzed by LC/MS/MS. The slope of the linear regression from log percentage remaining versus incubation time relationships (−ke) was calculated, and the intrinsic clearance (CLint) was calculated using the following equation.
# [3] = Stability test of dissolved compounds under heat- and acid-stress condition; format: physicochemical; settings: dissolved in water/acetonitrile/trifluoroacetic acid (500:500:1), stored at 70° C., Day 0, Day 1 and Day 3
# Protocol: In order to estimate the stability of compounds without conducting a long-term stability test, the stability of the dissolved compounds was evaluated under a heat- and acid-stress condition.
# About 0.005 g of test compound was dissolved in 50 mL of a mobile phase, and this solution was used as the sample solution. The solutions were put into a brown glass vial and stored at 70° C. during the test period. The test with 20 μL of each of the sample solution was conducted at the following sampling points as directed under the Liquid Chromatography according to the following conditions. The residual ratio of the test compound's peak area (%) in the total peak area detected in the solution was determined by the automatic integration method. Operating conditions were as follows. […] The residual ratio of the test compound's peak area (%) is calculated as follows. The peak area of the test compound/The total peak area detected in the solution×100.
SMILES,melting point,IC50 [1],microsomal CLint at 1 µM [2],storage stability (residual ratio of the test compound's peak area) [3]
CNc1ccc(Oc2ccc(NC(=O)c3ccc(F)c(F)c3F)cn2)c(OC)c1.Cl,207.1 to 209.8 °C,,,
"CNc1ccc(Oc2ccc(NC(=O)c3ccc(Oc4ccccc4)cc3)cn2)cc1 [Example 10, N-{6-[4-(Methylamino)phenoxy]pyridin-3-yl}-4-phenoxybenzamide]",,320 nM,,
"CNc1ccc(Oc2ccc(NC(=O)c3ccc(-c4ccccc4)cc3)cn2)cc1 [Example 11, N-{6-[4-(Methylamino)phenoxy]pyridin-3-yl}biphenyl-4-carboxamide]",,311 nM,,
"CNc1ccc(Oc2ccc(NC(=O)c3ccc(-c4ccccc4)cc3)cn2)c(OC)c1 [Example 14, N-{6-[2-Methoxy-4-(methylamino)phenoxy]pyridin-3-yl}biphenyl-4-carboxamide]",161.4 to 161.8 °C,248 nM,< 200 µL/min/mg,
"CNc1ccc(Oc2ccc(NC(=O)c3ccc(F)c(F)c3F)cn2)c(F)c1 [Example 23, 2,3,4-Trifluoro-N-{6-[2-fluoro-4-(methylamino)phenoxy]pyridin-3-yl}benzamide hydrochloride]",,753 nM,,
"CNc1ccc(Oc2ccc(NC(=O)c3ccc(F)c(F)c3F)cn2)c(C)c1.Cl [Example 25, 2,3,4-Trifluoro-N-{6-[2-methyl-4-(methylamino)phenoxy]pyridin-3-yl}benzamide hydrochloride]",222.9 to 225.4 °C (dec.),485 nM,< 200 µL/min/mg,
"CNc1ccc(Oc2ccc(NC(=O)c3ccc(Oc4ccccc4)cc3)cn2)c(OC)c1.Cl [Example 26, N-{6-[2-Methoxy-4-(methylamino)phenoxy]pyridin-3-yl}-4-phenoxybenzamide hydrochloride]",202.2 to 202.3 °C,275 nM,< 200 µL/min/mg,
"CNc1ccc(Oc2ccc(NC(=O)c3ccc(C(F)(F)F)cc3)cn2)c(OC)c1.Cl [Example 27, N-{6-[2-Methoxy-4-(methylamino)phenoxy]pyridin-3-yl}-4-(trifluoromethyl)benzamide hydrochloride]",217.6 to 218.2 °C,304 nM,< 200 µL/min/mg,
"CNc1ccc(Oc2ccc(NC(=O)c3ccc(C(F)(F)F)cc3F)cn2)c(OC)c1.Cl [Example 28, 2-Fluoro-N-{6-[2-methoxy-4-(methylamino)phenoxy]pyridin-3-yl}-4-(trifluoromethyl)benzamide hydrochloride]",197 to 198.1 °C,293 nM,< 200 µL/min/mg,
"CNc1ccc(Oc2ccc(NC(=O)c3ccc(C(F)(F)F)cc3)cn2)cc1.Cl [Example 30, N-{6-[4-(Methylamino)phenoxy]pyridin-3-yl}-4-(trifluoromethyl)benzamide hydrochloride]",,275 nM,< 200 µL/min/mg,superior storage stability
"CNc1ccc(Oc2ccc(NC(=O)c3ccc(C(F)(F)F)cc3F)cn2)cc1 [Example 31, 2-Fluoro-N-{6-[4-(methylamino)phenoxy]pyridin-3-yl}-4-(trifluoromethyl)benzamide hydrochloride]",,327 nM,< 200 µL/min/mg,

# The next lines start with the values.
melting point,IC50 [1],microsomal CLint at 1 µM [2],storage stability (residual ratio of the test compound's peak area) [3],SMILES
190 to 190.5 °C (dec.),108 nM,< 200 µL/min/mg,,"CNc1ccc(Oc2ccc(NC(=O)c3ccc(-c4ccccc4)cc3)cn2)c(F)c1 [Example 2, N-{6-[2-Fluoro-4-(methylamino)phenoxy]pyridin-3-yl}biphenyl-4-carboxamide]"
,155 nM,< 200 µL/min/mg,,"CNc1ccc(Oc2ccc(NC(=O)c3ccc(C(F)(F)F)cc3)cn2)c(F)c1 [Example 3, N-{6-[2-Fluoro-4-(methylamino)phenoxy]pyridin-3-yl}-4-(trifluoromethyl)benzamide]"
,78.5 nM,< 200 µL/min/mg,,"CNc1ccc(Oc2ccc(NC(=O)c3ccc(Oc4ccccc4)cc3)cn2)c(C)c1 [Example 6, N-{6-[2-Methyl-4-(methylamino)phenoxy]pyridin-3-yl}-4-phenoxybenzamide]"
,77.6 nM,< 200 µL/min/mg,,"CNc1ccc(Oc2ccc(NC(=O)c3ccc(-c4ccccc4)cc3)cn2)c(C)c1 [Example 7, N-{6-[2-Methyl-4-(methylamino)phenoxy]pyridin-3-yl}biphenyl-4-carboxamide]"
,70.4 nM,< 200 µL/min/mg,,"CNc1ccc(Oc2ccc(NC(=O)c3ccc(C(F)(F)F)cc3F)cn2)c(C)c1 [Example 9, 2-Fluoro-N-{6-[2-methyl-4-(methylamino)phenoxy]pyridin-3-yl}-4-(trifluoromethyl)benzamide]"
,136 nM,,,"CNc1ccc(Oc2ccc(NC(=O)c3ccc(Oc4ccccc4)cc3)cn2)c(F)c1 [Example 21, N-{6-[2-fluoro-4-(methylamino)phenoxy]pyridin-3-yl}-4-phenoxybenzamide hydrochloride]"
,163 nM,< 200 µL/min/mg,,"CNc1ccc(Oc2ccc(NC(=O)c3ccc(C(F)(F)F)cc3F)cn2)c(F)c1 [Example 22, 2-Fluoro-N-{6-[2-fluoro-4-(methylamino)phenoxy]pyridin-3-yl}-4-(trifluoromethyl)benzamide hydrochloride]"
,72.3 nM,< 200 µL/min/mg,,"CNc1ccc(Oc2ccc(NC(=O)c3ccc(C(F)(F)F)cc3)cn2)c(C)c1 [Example 24, N-{6-[2-methyl-4-(methylamino)phenoxy]pyridin-3-yl}-4-(trifluoromethyl)benzamide hydrochloride]"
